Data on nine compounds can be found in patent US20050197338A1, “Substituted pyrazole urea compounds for the treatment of inflammation” (priority 2003, published 2005).

In this experiment the target is T1, human IKK-2 (rhIKK-2 homodimer) (Homo sapiens, UniProt O14920).
T1 construct: FLAG (DYKDDDDKD) (C); made in house; host or cells: insect cells (baculovirus, pFastBac)
T1 sequence (O14920 1-756): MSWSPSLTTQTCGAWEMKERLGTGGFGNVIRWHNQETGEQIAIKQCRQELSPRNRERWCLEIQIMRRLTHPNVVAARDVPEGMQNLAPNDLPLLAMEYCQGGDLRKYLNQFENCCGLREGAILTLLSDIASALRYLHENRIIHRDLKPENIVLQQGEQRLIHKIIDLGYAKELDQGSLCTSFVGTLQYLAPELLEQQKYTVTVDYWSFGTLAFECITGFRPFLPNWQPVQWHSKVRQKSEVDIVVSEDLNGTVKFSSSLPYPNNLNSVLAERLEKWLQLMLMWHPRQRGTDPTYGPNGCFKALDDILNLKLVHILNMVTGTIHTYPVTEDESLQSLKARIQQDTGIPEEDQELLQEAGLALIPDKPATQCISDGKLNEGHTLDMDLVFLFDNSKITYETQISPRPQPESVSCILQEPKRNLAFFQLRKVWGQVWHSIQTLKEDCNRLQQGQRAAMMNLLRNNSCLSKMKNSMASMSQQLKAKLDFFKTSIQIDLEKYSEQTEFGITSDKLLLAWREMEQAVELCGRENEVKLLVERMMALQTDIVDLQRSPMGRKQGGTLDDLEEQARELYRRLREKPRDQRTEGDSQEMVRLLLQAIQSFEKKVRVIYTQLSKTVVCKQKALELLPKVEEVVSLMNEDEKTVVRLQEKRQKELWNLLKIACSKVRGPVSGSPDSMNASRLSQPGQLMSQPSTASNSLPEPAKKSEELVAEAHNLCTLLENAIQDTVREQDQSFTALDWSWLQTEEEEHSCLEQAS
Kind of experiment: IKK-2 Resin Enzyme Assay (Human IKK-2 Enzyme Assay). It is filed as biochemical. To be noted: human IKK-2, resin enzyme assay; read-out: IC50 (μM) hIKK-2. Summed up:
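C-terminally FLAG-tagged human IKK-2 homodimer, baculovirus-expressed in insect cells and anti-FLAG purified. Reaction mix: 5 μM biotinylated IκBα peptide (Ser32/Ser36 region), 1 μM ATP with [γ-33P]ATP, 2 mM MgCl2, 2 mM MnCl2, 10 mM NaF, 1 mM DTT, 25 mM HEPES pH 7.6. Incubated 30 min at 25 °C; IC50 derived.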
As a reminder, the IC50 is the concentration needed to halve the response being measured. Regarding `NC(=O)Nc1cn(-c2ccc(-c3ccc(-c4nnn[nH]4)cc3)cc2)nc1C(N)=O` [Example 187, 4-[(aminocarbonyl)amino]-1-[4′-(1H-tetrazol-5-yl)-1,1′-biphenyl-4-yl]-1H-pyrazole-3-carboxamide], the IC50 was determined as 0.821 µM.

Turning to `NC(=O)Nc1cn(-c2ccc(S(=O)(=O)C3CCCCC3)cc2)nc1C(N)=O` [Example 192, 1-(3-carbamoyl-1-(4-(cyclohexylsulfonyl)phenyl)-1H-pyrazol-4-yl)urea], the IC50 was found to be 0.237 µM.

Take `NC(=O)Nc1cn(-c2ccc(S(=O)(=O)c3ccccc3F)cc2)nc1C(N)=O` [Example 194, 1-(1-(4-(2-fluorophenylsulfonyl)phenyl)-3-carbamoyl-1H-pyrazol-4-yl)urea]: the IC50 was 0.15 µM.

On to `NC(=O)Nc1cn(-c2ccc(S(=O)(=O)c3ccc(F)cc3)cc2)nc1C(N)=O` [Example 204, 1-(1-(4-(4-fluorophenylsulfonyl)phenyl)-3-carbamoyl-1H-pyrazol-4-yl)urea], for which the IC50 is 0.013 µM.

For `NC(=O)Nc1cn(-c2ccc(Sc3ccccn3)cc2)nc1C(N)=O` [Example 205, 1-(3-carbamoyl-1-(4-(pyridin-2-ylthio)phenyl)-1H-pyrazol-4-yl)urea], the IC50 is 1.13 µM.

In the case of `COc1ccc(-n2cc(NC(N)=O)c(C(N)=O)n2)cc1Cl` [Example 209, 4-[(Aminocarbonyl)amino]-1-(3-chloro-4-methoxyphenyl)-1H-pyrazole-3-carboxamide], the half-maximal inhibitory concentration (IC50) was determined as 1.04 µM.

With `NC(=O)Nc1cn(-c2ccc(I)cc2)nc1C(N)=O` [Example 215, 4-[(aminocarbonyl)amino]-1-(4-iodophenyl)-1H-pyrazole-3-carboxamide], the IC50 was found to be 0.322 µM.

In the case of `NC(=O)Nc1cn(-c2ccc(Br)c(F)c2)nc1C(N)=O` [Example 225, 4-[(aminocarbonyl)amino]-1-(4-bromo-3-fluorophenyl)-1H-pyrazole-3-carboxamide], the IC50 was 0.378 µM.

As to `NC(=O)Nc1cn(-c2ccc(-c3cccc(O)c3)cc2F)nc1C(N)=O` [Example 247, 4-[(aminocarbonyl)amino]-1-(3-fluoro-3′-hydroxy-1,1′-biphenyl-4-yl)-1H-pyrazole-3-carboxamide], the IC50 was found to be 0.457 µM.
